Experimental data published in patent publication US10195185B2, “3-(1H-imidazo[4,5-C]pyridin-2-yl)-1H-pyrazolo[4,3-B]pyridines and therapeutic uses thereof” (Samumed, LLC, priority 2015, dated 2019).
pEC50: −log10 of the molar value.

Legend:
Type in all cases: cell-based
[1] = test system: IL-6 in human monocyte cell line (THP-1 cells); test: IL-6 inhibition in LPS-stimulated THP-1 cells (HTRF); details: IL-6 in LPS-stimulated THP-1 cells; for pEC50: HTRF; for inhibition at 10 µM: read-out: percent inhibition in brackets beside EC50 >10 μM
How it was run: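 THP-1 cells, serum-reduced (1% FBS) for 24 h, were preincubated with compound (10-point 1:3 series from 10 μM, 0.1% DMSO) for 2 h, then stimulated with 500 ng/mL LPS for 22 h at 37° C. IL-6 was read by HTRF (665/620 nm ratio) and normalized to DMSO. EC50 from four-parameter fit; % inhibition at 10 μM given if EC50 >10 μM.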

[2] = test system: Wnt activity (Wnt-responsive human Sp5 promoter, TCF/LEF binding sites) in SW480 colon carcinoma cells; test: Wnt activity screening assay: Sp5-Luc luciferase reporter gene in SW480 cells; details: for pEC50: 10-point dose-response from 10 μM, incubated overnight; for inhibition at 10 µM: given for EC50 of >10 μM, read-out: percent inhibition at 10 μM
How it was run: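 Luminescence read-out (BrightGlo) from stable Sp5-Luc SW480 cells, normalized to DMSO-only wells. Cells were treated overnight at 37° C in 1% FBS medium across a 1:3, 10-point series starting at 10 μM. EC50 from variable-slope four-parameter regression; percent inhibition at 10 μM given where EC50 >10 μM.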

SW480 colon cancer cells = test: Cell viability assay (CellTiter-Blue), four days; details: Homo sapiens, 96 h; for inhibition at 10 µM: read-out: percent inhibition at 10 μM (given for EC50 of >10 μM); for pEC50: CellTiter-Blue cell viability
How it was run: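 Approximately 2×10^3 SW480 cells per well are seeded with compound (8 points, threefold steps, top 10 μM) and incubated four days at 37 °C. CellTiter-Blue is then added for about 3 h and fluorescence read. Non-linear regression gives EC50; for values beyond 10 μM, percent inhibition at that concentration is listed.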

Row | SMILES | pEC50 [1] | pEC50 [2] | pEC50 (SW480 colon cancer cells) | inhibition at 10 µM [1] [%] | inhibition at 10 µM [2] [%] | inhibition at 10 µM (SW480 colon cancer cells) [%]
1 | CS(=O)(=O)NCc1cc(F)cc(-c2nccc3[nH]c(-c4n[nH]c5ccc(-c6cncc(NC(=O)CC7CCNCC7)c6)nc45)nc23)c1 [Compound 769, N-(5-(3-(4-(3-Fluoro-5-(methylsulfonamidomethyl)phenyl)-1H-imidazo[4,5-c]pyridin-2-yl)-1H-pyrazolo[4,3-b]pyridin-5-yl)pyridin-3-yl)-2-(piperidin-4-yl)acetamide] | < 5.00 | < 5.00 | < 5.00 | 33.4 | 9.8 | 7.7
2 | COc1cccc(-c2nccc3[nH]c(-c4n[nH]c5ccc(-c6cn[nH]c6)nc45)nc23)c1 [Compound 1020, 3-(4-(3-Methoxyphenyl)-1H-imidazo[4,5-c]pyridin-2-yl)-5-(1H-pyrazol-4-yl)-1H-pyrazolo[4,3-b]pyridine] | < 5.00 | < 5.00 | < 5.00 | 0 | 5.7 | 6.4
3 | O=C(Nc1cncc(-c2ccc3[nH]nc(-c4nc5c(-c6ccncc6)nccc5[nH]4)c3n2)c1)C1CCCCC1 [Compound 135, N-(5-(3-(4-(pyridin-4-yl)-1H-imidazo[4,5-c]pyridin-2-yl)-1H-pyrazolo[4,3-b]pyridin-5-yl)pyridin-3-yl)cyclohexanecarboxamide] | < 5.00 | < 5.00 | < 5.00 | 33.2 | 2.8 | 1
4 | c1cncc(-c2ccc3[nH]nc(-c4nc5cnccc5[nH]4)c3n2)c1 [Compound 256, 3-(1H-Imidazo[4,5-c]pyridin-2-yl)-5-(pyridin-3-yl)-1H-pyrazolo[4,3-b]pyridine] | < 5.00 | < 5.00 | < 5.00 | 35.5 | 21.9 | 1.8
5 | c1cncc(-c2ccc3[nH]nc(-c4nc5c(-c6cccnc6)nccc5[nH]4)c3n2)c1 [Compound 88, 5-(Pyridin-3-yl)-3-(4-(pyridin-3-yl)-1H-imidazo[4,5-c]pyridin-2-yl)-1H-pyrazolo[4,3-b]pyridine] | < 5.00 | < 5.00 | < 5.00 | 20.4 | 34.4 | 8.5

More lines, main results first:

Row | pEC50 [1] | pEC50 [2] | pEC50 (SW480 colon cancer cells) | SMILES | inhibition at 10 µM [1] [%] | inhibition at 10 µM [2] [%] | inhibition at 10 µM (SW480 colon cancer cells) [%]
6 | < 5.00 | < 5.00 | < 5.00 | CC(C)C(=O)Nc1cncc(-c2ccc3[nH]nc(-c4nc5c(-c6ccccc6F)nccc5[nH]4)c3n2)c1 [Compound 65, N-(5-(3-(4-(2-fluorophenyl)-1H-imidazo[4,5-c]pyridin-2-yl)-1H-pyrazolo [4,3-b]pyridin-5-yl)pyridin-3-yl)isobutyramide] | 40.4 | 2.7 | 8.7
7 | < 5.00 | 5.97 | 5.48 | CC(C)(C)C(=O)Nc1cncc(-c2ccc3[nH]nc(-c4nc5c(-c6ccc(Cl)s6)nccc5[nH]4)c3n2)c1 [Compound 1043, N-(5-(3-(4-(5-Chlorothiophen-2-yl)-1H-imidazo[4,5-c]pyridin-2-yl)-1H-pyrazolo[4,3-b]pyridin-5-yl)pyridin-3-yl)pivalamide] | 0 | – | –
8 | < 5.00 | 6.14 | 5.94 | CC(C)CC(=O)Nc1cncc(-c2ccc3[nH]nc(-c4nc5c(-c6ccc(Cl)s6)nccc5[nH]4)c3n2)c1 [Compound 1037, N-(5-(3-(4-(5-Chlorothiophen-2-yl)-1H-imidazo[4,5-c]pyridin-2-yl)-1H-pyrazolo [4,3-b]pyridin-5-yl)pyridin-3-yl)-3-methylbutanamide] | 18.1 | – | –
9 | < 5.00 | < 5.00 | < 5.00 | CCCCC(=O)Nc1cncc(-c2ccc3[nH]nc(-c4nc5c(-c6ccccn6)nccc5[nH]4)c3n2)c1 [Compound 159, N-(5-(3-(4-(Pyridin-2-yl)-1H-imidazo[4,5-c]pyridin-2-yl)-1H-pyrazolo[4,3-b]pyridin-5-yl)pyridin-3-yl)pentanamide] | 28.2 | 1.2 | 5.7
